Measured values from article PMC6153204 (2018).

Tests used:
[1] = test system: B09 (DNA, aptamer) GCTAGACGATATTCGTCCATCTCCCGTGCATGCGAGACCGTGAGTTGGACTGACCCGCTTCCGCTGTCAGACTGAATATGTC; assay: plate saturation binding, absorbance at 450 nm, nonlinear regression; conditions: varied aptamer, fixed rongalite; immobilised compound (implied by plate assay); buffer not stated
[2] = test system: A09 (DNA, aptamer) GACATATTCAGTCTGACAGCGGAAGCGGGTCAGTCCAACTCACGGTCTCGCATGCACGGGAGATGGACGAATATCGTCTAGC; assay: as above; conditions: varied aptamer, fixed rongalite; immobilised compound (implied by plate assay); buffer not stated

Kd [1]: 0.03981 ± 0.01273 µM | Kd [2]: 0.06112 ± 0.01636 µM
SMILES: O=S(O)CO
